How the values were obtained:
HA-SSTR3 = assay: SSTR3 internalization in HEK293 cells, confocal microscopy; assay type: cell-based, human; conditions: 1 µM agonist, 30 min 37 °C
Procedure: HEK293 cells obtained from DSMZ (Braunschweig, Germany) were transfected with plasmid encoding […] HA-tagged SSTR2, SSTR3 or SSTR5 receptors.
HEK293 cells stably expressing HA-tagged hSSTR cultures were preincubated with anti-HA antibody for 2 h at 4 °C and then exposed to 1 µM agonist for 30 min at 37 °C before fixing and further labeling with Alexa488-conjugated secondary antibody. After mounting with Roti®-MountFluorCare DAPI, cultures were examined using a Zeiss LSM510 META laser scanning confocal microscope (Zeiss, Jena, Germany) (see Supplementary Materials for details).
GH produced by primary cultures was tested by ELISA assay using Rat Growth Hormone Biotrak Enzyme immunoassay Mouse/Rat Growth ELISA (DSL-10-72100) or Rat/Mouse Growth Hormone ELISA (Millipore EZRMGH-45K) diluting supernatants 1:20, according to manufacturer’s instructions. […]
(§1) U2OS recombinant cell lines were obtained from Innoprot (Derio, Spain). […] Nuclei were stained using DAPI (2 μg/ml) and the ﬂuorescence was measured using a BD Pathway 855 High-Content Bioimager from Becton Dickinson. The receptor internalization was calculated using AttoVision Software. […]
(§2) Agonist activity of test compounds was calculated relatively to positive control

hSSTR3 = target: T1, hSSTR3 (Homo sapiens, UniProt P32745); assay: Radioligand binding to human SSTR3; conditions: from binding IC50
T1 construct: expressed in transfected cells; host or cells: CHO-K1 (membranes)
Procedure: Data were analyzed with XLfit (IDBS) software (version 5.3.1.3) using nonlinear regression applied to a sigmoidal dose–response model. Agonist activity of test compounds is expressed as a percentage of the activity of the reference agonist at its EC100 concentration.
After 60 min at 25°C in a water bath, samples were ﬁltered over GF/B ﬁlters (Perkin
Elmer, 6005177) presoaked in 0.5% PEI for 2h at RT) with a Filtermate Harvester (Perkin
Elmer ). Filters were washed 6 times with 0.5 ml of ice-cold ﬁltration buﬀer, incubated 15
min. on an orbital shaker with 50 µl of Microscint 20 (Packard) and counted for
radioactivity with a TopCountTM or MicroBetaTM for 1 min/well.
Dose-response curve were performed for each SSTR (agonist range 10-11 – 3x10-7 M),
Each point was performed in duplicate2,3
Dose-response data from test compounds were analysed with XLﬁt (IDBS) software
using nonlinear regression applied to a sigmoidal dose-response model.
Agonist activity of test compounds is expressed as a percentage of the activity of the
reference agonist at its EC100 concentration.

[1] = at high doses; ref manuscript in preparation; cited from earlier work
Text: One important aspect relates to safety margins. Hyperglycemia is a common side effect of SSTR panagonists such as Pasireotide. […] What remains to be ascertained clinically is whether the higher agonistic activity on SSTR3 may allow us to define a dose at which full receptor engagement is observed in the absence of significant hyperglycemia.

δ (DOP) (h) = assay: Single-dose binding assay on δ opioid receptor; design: species or system human; conditions: 10^−5 M
[2] = test system: NFPAs of MENX (homozygous mutant) rats; assay: In vivo efficacy against endogenous NFPAs in MENX rats; design: species or system rat; conditions: 12.5 mg/kg s.c. every 14 days, 56 days
Procedure: Tumor monitoring in rats was conducted using MRI at day 0 (pretreatment) and every 14 days post-treatment (days 14, 28, 42, 56). MRI was performed on a 7T preclinical scanner (Bruker BioSpin MRI GmbH, Ettlingen, Germany) using previously published procedures suitable to visualize the rat pituitary tumors. In the T2 weighted datasets, regions of interest (ROIs) were manually segmented around the adenomas in every slice where they appeared; tumor volumes were finally calculated from the data (area of particular ROIs and slice thickness) using an implemented algorithm in Osirix/Horos (Pixmeo SARL/Horos Project) as previously described.
RNA was extracted using RNeasy Mini Kit (Qiagen, Cluj-Napoca, Romania) following the manufacturer’s instructions. Total RNA concentration and purity was assessed using Nanodrop 2000 spectrophotometer (Thermo Scientific, Waltham, MA, USA). Total RNA was retrotranscribed using random hexamer primers and the cDNA First Strand Synthesis kit (Thermo Scientific). Details regarding the quantitative PCR (qPCR) procedure used to determine the absolute expression levels of the different somatostatin receptor genes (Sstr1-5) have been previously reported. Specific sets of primers for these genes have been previously validated and reported. To control for the amount of RNA and for the efficiency of the retrotranscription reaction, mRNA copy numbers of the different transcripts analyzed were adjusted by β-actin (ACTB) expression (used as housekeeping gene).
Ki67-positive tumor cells per 100,000 µm^2 were counted under the microscope in 3 independent areas for each tumor sample.
Linear mixed-effects (LME) models were applied for longitudinal analysis of tumor volume growth, with absolute tumor volume at day 0 used for scaling subsequent measurements of each individual, as previously reported. Relative volumes were transformed by natural logarithms for use as model outcomes in order to meet the normal distributional assumptions. Linear and quadratic growth predictors and interactions were considered for significance testing, performed by the F-test, with results presented as the mean ± standard error of the mean (SEM). Statistical significance between two series of data was determined by one-way ANOVA. A p value < 0.05 was considered statistically significant.

SSTR3-tGFP = assay: Receptor internalization in U2OS-transfected cells (SSTR3-tGFP); assay type: cell-based, human; conditions: 3 h, high-content imaging, n = 3, method: percentage of activity relative to SST28 10^−6 M
Procedure: Compounds were tested at five concentrations (10^−5, 10^−6, 10^−7, 10^−8, 10^−9 M) in comparison to untreated cells.
SST agonists were added to U2OS recombinant cell lines in OptiMeM medium (Life technologies 51985-034, Monza, Italy) for 3 h (SSTR2, SSTR3) or 7 h (SSTR5) (n = 3). After formaldehyde fixation, nuclei were stained using DAPI (2 µg/mL), and the fluorescence was measured with BD Pathway 855 High-Content Bioimager from Becton Dickinson. The receptor internalization was calculated using AttoVision 1.6 Software. Approximately 500 cells per field were analyzed. […]
(Invitrogen, Carlsbad, CA). Stable transfectants were selected in the presence of 500 µg/ml G-418. […]
% picric acid in phosphate buﬀer (pH 6.9) for 30 minutes at room temperature (RT). […]
3.2. U2OS human cell lines transfected with human receptors (SSTR2-tGFP, SSTR3-tGFP,
Compounds were tested at ﬁve d iﬀerent concentrations (10-5, 10-6, 10-7, 10-8, 10^-9 M) in comparison to untreated cells.
as §1, §2

T1 sequence (P32745 whole entry): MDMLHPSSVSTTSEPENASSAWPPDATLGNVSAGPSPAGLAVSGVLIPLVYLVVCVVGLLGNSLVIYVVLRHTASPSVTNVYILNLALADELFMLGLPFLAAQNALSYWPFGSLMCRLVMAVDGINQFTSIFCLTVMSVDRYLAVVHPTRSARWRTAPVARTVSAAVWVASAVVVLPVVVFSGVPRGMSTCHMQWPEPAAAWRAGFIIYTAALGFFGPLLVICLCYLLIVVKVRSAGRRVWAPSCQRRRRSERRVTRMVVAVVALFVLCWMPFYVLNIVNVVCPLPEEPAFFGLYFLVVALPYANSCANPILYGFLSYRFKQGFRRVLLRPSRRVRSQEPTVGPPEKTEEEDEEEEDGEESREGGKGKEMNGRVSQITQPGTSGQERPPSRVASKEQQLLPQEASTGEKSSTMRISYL

For `COc1cc2cccc(OC)c2cc1C[C@H]1NC(=O)[C@H](Cc2ccc(O)cc2)NC(=O)[C@@H]2C[C@@H](OC(=O)NCCN)CN2C(=O)[C@H](Cc2ccccc2)NC(=O)[C@H](Cc2ccc(OCc3ccccc3)cc2)NC(=O)[C@H](CCCCN)NC1=O` [ITF2984, Cyclo[Tyr(Bn)-Phe-Pro(4-OCONH(CH2)2NH2)-Tyr-3,8-diMeONal-Lys]], the “internalization of SSTR3 in transfected HEK293 cells” value (HA-SSTR3) is given as “strong internalization”, the “improved affinity for SSTR3 compared to Octreotide or Pasireotide” value (hSSTR3) is given as 10 fold and the “glycemia in clinical studies” value [1] is given as “increased glycemia”. The “Percentage of inhibition of opioid receptor δ (DOP) (h) (agonist)” value (δ (DOP) (h)) was 79%, the “change in number of Ki67-positive cells versus placebo, female rats” value ([2]; female MENX rats) was −57% and the “tumor volume during treatment (MRI), female rats” value ([2]; female MENX rats, MRI every 14 days) was “only a slight increase in tumor volume”. The “number of Ki67-positive cells per area, average, female rats” value ([2]; female MENX rats, placebo 312) was 134 cells per 100,000 mm^2, the “change in number of Ki67-positive cells versus placebo, male rats” value ([2]; male MENX rats) was −33.5% and the “number of Ki67-positive cells per area, average, male rats” value ([2]; male MENX rats, placebo 375) was 250 cells per 100,000 mm^2. For the same molecule, the “Receptor internalization in U2OS-transfected cells, SSTR3, at 10^−5 M” value (SSTR3-tGFP; 10^−5 M) was 61.1 and the “Receptor internalization in U2OS-transfected cells, SSTR3, at 10^−6 M (value in brackets)” value (SSTR3-tGFP; 10^−6 M) was 62.5.

— publication PMC10340464, “Identification of a Novel SSTR3 Full Agonist for the Treatment of Nonfunctioning Pituitary Adenomas” (Cancers, 2023)
